Source: patent US10464952B2, “Beta-lactamase inhibitors” (priority 2015, dated 2019)

Experiments:
p99 AmpC = target: T1, p99 AmpC (Enterobacter cloacae, UniProt P05364); assay: β-lactamase enzyme inhibition assay, p99 AmpC (nitrocefin substrate); format: biochemical
T1 construct: made in house; host or cells: E. coli BL21(DE3)
Experimental: (§1) For SHV-5, KPC-2, p99AmpC and OXA-4813-lactamases, E. coli BL21(DE3) bacterial cells carrying expression plasmids (expressed as native untagged proteins) for the individual β-lactamases were grown in 1L of Superbroth (Teknova Inc. Hollister, Calif.) supplemented with 100 μg/ml kanamycin selection and 1×5052 (0.5% glycerol, 0.05% glucose and 0.2% α-lactose) at 35° C. for 18-20 hours. Cells were harvested by centrifugation (4,000 ×g, 4° C., 20 min), re-suspended in 50 ml of 10 mM HEPES pH 7.5 (1/20 of the initial volume). The cells were lysed by sonication (5 pulses of 45 seconds) at 45 Won ice. The lysates were clarified by centrifugation at 10,000 ×g for 40 minutes at 4° C. Samples were diluted 5-fold in 50 mM sodium acetate pH 5.0, stored overnight at 4° C., after which they were centrifuged at 10,000 ×g for 30 minutes to clarify, and filtered through 0.45 μm filters. The samples were loaded onto a 5 ml Capto S sepharose cation exchange column (GE Healthcare) pre-equilibrated with 50 mM sodium acetate pH 5.0. The column was washed with 5 column volumes of 50 mM sodium acetate pH 5.0 to wash out unbound protein and a linear gradient of NaCl (0 to 500 mM) was used to elute the protein (over 16 CV) from the column. Fractions were assayed for β-lactamase activity using Centa (Calbiochem, Gibbstown, N.J.) or Nitrocefin (EMD Millipore chemicals, Darmstadt, Germany) as a reporter β-lactamase substrate for activity in the isolated fractions. Active fractions were pooled, concentrated and further purified by gel filtration chromatography on a Superdex 75 prep grade gel filtration column (GE Healthcare, Piscataway, N.J.) pre -equilibrated in 50 mM Hepes pH 7.5, 150 mM NaCl. Active fractions were pooled, concentrated, and quantitated by BCA protein determination (ThermoScientific, Rockford, Ill.), dialyzed into PBS and frozen at […] in 20% glycerol until use.
(§2) An equal volume of diluted enzyme stock was added, and the plates were incubated at 37° C. for 15 min. Nitrocefin was used as substrate for p99 AmpC, VIM-2 and OXA-48 and dispensed into each well at a final concentration of 100 μM. Absorbance at 486 nm was immediately monitored for 10 min using a Biotek Powerwave XS2 microplate spectrophotometer using the GEN5 software package (Biotek Instruments, Winooski Vt.). In an analogous fashion, imipenem was used as substrate for KPC-2 and Cefotaxime was used for SHV-5, while changes in absorbance upon hydrolysis of the β-lactam ring were monitored at 300 nm and 260 nm respectively in UV-transparent 96-well microtiter assay plates. Maximum rates of hydrolysis were compared to those in control wells (without inhibitors), and percentages of enzyme inhibition were calculated for each concentration of inhibitor. The concentration of inhibitor needed to reduce the initial rate of hydrolysis of substrate by 50% (IC50) was calculated as the residual activity of β-lactamase at 486 nm using GraFit version 7 kinetics software package (Erithacus Software, Surrey, UK).
(§3) Using the methodology described above, examples of the current invention were evaluated for their ability to inhibit β-lactamase enzymes from all four Ambler classifications (A through D). […] NT=Not tested.

OXA-48 = target: T2, OXA-48 (Klebsiella pneumoniae, UniProt Q6XEC0); assay: β-lactamase enzyme inhibition assay, OXA-48 (nitrocefin substrate); format: biochemical
T2 construct: made in house; host or cells: E. coli BL21(DE3)
T2 sequence (Q6XEC0 23-265 limits assumed): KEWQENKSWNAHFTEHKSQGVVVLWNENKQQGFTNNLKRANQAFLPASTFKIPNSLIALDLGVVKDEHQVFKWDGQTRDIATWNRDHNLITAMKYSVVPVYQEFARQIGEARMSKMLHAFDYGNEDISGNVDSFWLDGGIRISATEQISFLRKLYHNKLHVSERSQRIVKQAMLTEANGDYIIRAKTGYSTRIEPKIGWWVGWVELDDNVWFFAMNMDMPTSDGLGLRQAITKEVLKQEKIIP
Experimental: as §1, §2, §3

[1] = test system: E. coli expressing the Class A Extended Spectrum Beta-Lactamase (ESBL) CTX-M-15; assay: Broth microdilution MIC assay, potentiation of ceftazidime; format: cell-based; settings: for MIC (μg/mL) of exemplary compounds in presence of fixed β-lactams, E. coli ESBL4 CTX-M-15: Fixed CAZ 4 μg/mL, CAMHB, 16-20 hours at 37° C.
Description: (§4) To determine the ability of test compounds to potentiate the inhibition of the growth of bacterial strains that produce beta-lactamase enzymes, classic cell based broth microdilution MIC assays were employed. Six bacteria strains producing beta-lactamase enzymes were used: E. coli expressing the Class A Extended Spectrum Beta-Lactamase (ESBL) CTX-M-15, E. cloacae expressing the Class C P99, K. pneumoniae expressing the Class A carbapenemase KPC-3, P.aeruginosa expressing the Class B carbapenemase VIM-2, K. pneumoniae expressing the class A carbapenemase KPC-2 and the class B carbapenemase VIM-4, and K. pneumoniae producing the Class D carbapenemase OXA-48. The assay was conducted in Cation Adjusted Mueller Hinton Broth (CAMHB, BD #212322, BD Diagnostic Systems, Sparks, Md.). Bacteria strains were grown for 3-5 hours in CAMHB broth. Test compounds were added to a microtiter plate in 2-fold serial dilutions in CAMHB in a final concentration range of 32 μg/mL to 0.015 μg/mL. An overlay of CAMHB containing a Beta-lactam was added to the compounds at a final static concentration of 4 μg/mL. […] In addition to the titration of test compounds the MICs of a panel of control beta-lactams is also tested to ensure the strains are behaving consistently from test to test. Once the test compound and antibiotics are added the plates can be inoculated according to CLSI broth microdilution method. After inoculation, the plates are incubated for 16-20 hours at 37° C., then the Minimal Inhibitory Concentration (MIC) of the test compound is determined visually.
(§5) Using the methodology described above, examples of the current invention were evaluated for their ability to inhibit the growth of β-lactamase-producing bacteria in the presence of a β-lactam antibiotic.
(§6) Representative results are shown in Table 3 where A represents an MIC of the fixed β-lactam antibiotic in the presence of >32 μg/mL of a β-lactamase inhibitor of exemplary compounds, B represents the MIC in the presence of between 8 and 32 μg/mL of a β-lactamase inhibitor of exemplary compounds, and C represents the MIC in the presence of ≤4 μg/mL of a β-lactamase inhibitor of exemplary compounds. NT=Not Tested.

[2] = test system: E. cloacae expressing the Class C P99; assay: as above; format: cell-based; settings: for MIC (μg/mL) of exemplary compounds in presence of fixed β-lactams, E. cl. 144200 p99 AmpC: Fixed CAZ 4 μg/mL, CAMHB, 16-20 hours at 37° C.
Description: as §4, §5, §6

[3] = test system: K. pneumoniae expressing the class A carbapenemase KPC-2 and the class B carbapenemase VIM-4; assay: Broth microdilution MIC assay, potentiation of meropenem; format: cell-based; settings: Fixed Mero 4 μg/mL; CAMHB, 16-20 hours at 37° C.
Description: as §4, §5, §6

[4] = test system: P.aeruginosa expressing the Class B carbapenemase VIM-2; assay: as above; format: cell-based; settings: Fixed Mero 4 μg/mL; CAMHB, 16-20 hours at 37° C.
Description: as §4, §5, §6

[5] = target: T3, VIM-2 metallo β-lactamase (Pseudomonas aeruginosa, UniProt Q9K2N0); assay: β-lactamase enzyme inhibition assay, VIM-2 (nitrocefin substrate); format: biochemical; settings: 15 min preincubation at 37° C.; nitrocefin 100 μM, 486 nm; read-out: IC50 VIM-2 (Class B)
T3 construct: made in house; host or cells: E. coli BL21(DE3)
Experimental: For VIM-2 metallo β-lactamase, the procedure was identical with the following exceptions, first the protein was not pH adjusted to pH 5 with 50 mM sodium acetate. Second, the chromatography step was changed to a 5 ml Q sepharose anion exchange column pre-equilibrated with 50 mM Hepes pH 7.5, and elution of the protein was achieved by a linear gradient of NaCl (0-600 mM). Finally, the VIM-2 purification required a second run (3rd step) on the Q sepharose anion exchange column to achieve acceptable purity (>90%).
as §2, §3

SHV-5 = target: T4, SHV-5 (Klebsiella pneumoniae, UniProt P0A3M1); assay: β-lactamase enzyme inhibition assay, SHV-5 (cefotaxime substrate); format: biochemical
T4 construct: made in house; host or cells: E. coli BL21(DE3)
T4 sequence (P0A3M1 22-286): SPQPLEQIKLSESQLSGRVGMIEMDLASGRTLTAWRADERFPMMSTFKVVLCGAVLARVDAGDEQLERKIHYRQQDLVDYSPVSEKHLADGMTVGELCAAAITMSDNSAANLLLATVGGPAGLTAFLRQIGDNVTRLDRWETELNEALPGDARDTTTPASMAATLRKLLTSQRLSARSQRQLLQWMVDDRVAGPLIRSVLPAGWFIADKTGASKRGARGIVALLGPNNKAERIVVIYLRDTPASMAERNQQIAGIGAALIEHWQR
Experimental: as §1, §2, §3

[6] = test system: K. pneumoniae producing the Class D carbapenemase OXA-48; assay: Broth microdilution MIC assay, potentiation of meropenem; format: cell-based; settings: Fixed Mero 4 μg/mL; CAMHB, 16-20 hours at 37° C.
Description: as §4, §5

[7] = test system: K. pneumoniae expressing the Class A carbapenemase KPC-3; assay: as above; format: cell-based; settings: Fixed Mero 4 μg/mL; CAMHB, 16-20 hours at 37° C.
Description: as §4, §5

KPC-2 = target: T5, KPC-2 (Klebsiella pneumoniae, UniProt Q9F663); assay: β-lactamase enzyme inhibition assay, KPC-2 (imipenem substrate); format: biochemical
T5 construct: made in house; host or cells: E. coli BL21(DE3)
T5 sequence (Q9F663 25-293 limits assumed): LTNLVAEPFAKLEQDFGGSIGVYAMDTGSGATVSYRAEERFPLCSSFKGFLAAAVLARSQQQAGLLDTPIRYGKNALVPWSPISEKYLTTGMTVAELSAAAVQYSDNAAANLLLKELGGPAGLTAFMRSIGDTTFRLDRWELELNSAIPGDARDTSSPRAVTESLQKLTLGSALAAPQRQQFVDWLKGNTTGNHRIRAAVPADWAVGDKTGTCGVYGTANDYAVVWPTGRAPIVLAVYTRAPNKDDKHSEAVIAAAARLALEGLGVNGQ
Experimental: as §1, §2, §3

T1 sequence (P05364 21-381): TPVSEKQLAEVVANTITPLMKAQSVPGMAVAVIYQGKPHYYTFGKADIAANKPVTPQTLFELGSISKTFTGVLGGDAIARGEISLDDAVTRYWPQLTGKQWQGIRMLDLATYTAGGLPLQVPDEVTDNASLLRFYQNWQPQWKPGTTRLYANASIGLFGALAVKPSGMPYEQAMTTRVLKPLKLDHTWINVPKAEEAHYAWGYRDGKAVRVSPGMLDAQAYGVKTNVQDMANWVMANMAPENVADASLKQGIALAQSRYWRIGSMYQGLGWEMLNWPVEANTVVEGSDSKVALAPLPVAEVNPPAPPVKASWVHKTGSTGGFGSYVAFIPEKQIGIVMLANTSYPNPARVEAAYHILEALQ

Structure (SMILES): CC(F)C(=O)N[C@H]1Cc2cccc(C(=O)O)c2OB1O (mixture of isomers) [Example 102, (3R)-3-(2-fluoropropanamido)-2-hydroxy-3,4-dihydro-2H -benzo[e][1,2]oxaborinine-8-carboxylic acid]
- IC50 (p99 AmpC): < 100 nM
- IC50 (OXA-48): 100 to 1000 nM
- MIC (μg/mL) of exemplary compounds in presence of fixed β-lactams, E. coli ESBL4 CTX-M-15 [1]: C (C represents the MIC in the presence of ≤4 μg/mL of a β-lactamase inhibitor)
- MIC (μg/mL) of exemplary compounds in presence of fixed β-lactams, E. cl. 144200 p99 AmpC [2]: C (C represents the MIC in the presence of ≤4 μg/mL of a β-lactamase inhibitor)
- MIC (μg/mL) of exemplary compounds in presence of fixed β-lactams, K.P. A-1797 KPC-2 VIM-4 [3]: B (B represents the MIC in the presence of between 8 and 32 μg/mL of a β-lactamase inhibitor)
- MIC (μg/mL) of exemplary compounds in presence of fixed β-lactams, P. aerug. 2775 VIM-2 [4]: C (C represents the MIC in the presence of ≤4 μg/mL of a β-lactamase inhibitor)
- IC50 [5]: 1000 to 10000 nM
- IC50 (SHV-5): < 100 nM
- MIC (μg/mL) of exemplary compounds in presence of fixed β-lactams, K. P. 11978 OXA-48 [6]: C (C represents the MIC in the presence of ≤4 μg/mL of a β-lactamase inhibitor)
- MIC (μg/mL) of exemplary compounds in presence of fixed β-lactams, K. P. 156319 KPC-3 [7]: C (C represents the MIC in the presence of ≤4 μg/mL of a β-lactamase inhibitor)
- IC50 (KPC-2): < 100 nM

Structure (SMILES): CC(C)(O/N=C(\C(=O)N[C@@H]1C(=O)N2C(C(=O)[O-])=C(C[n+]3ccccc3)CS[C@H]12)c1csc(N)n1)C(=O)O [Ceftazidime, reference compound]
- MIC alone of partner antibiotic ([1]; antibiotic alone, E. coli expressing Ambler Class A ESBL CTX-M-15): > 128 µg/mL
- MIC alone of partner antibiotic ([2]; antibiotic alone, E. cloacae expressing Class C P99): 128 µg/mL

Structure (SMILES): CCC(F)(F)C(=O)N[C@H]1Cc2cccc(C(=O)O)c2OB1O [Example 1, (R)-3-(2,2-difluorobutanamido)-2-hydroxy-3,4-dihydro-2H-benzo [e] [1,2] oxaborinine-8-carboxylic acid]
- IC50 (p99 AmpC): < 100 nM
- IC50 (OXA-48): 100 to 1000 nM
- MIC (μg/mL) of exemplary compounds in presence of fixed β-lactams, E. coli ESBL4 CTX-M-15 [1]: C (C represents the MIC in the presence of ≤4 μg/mL of a β-lactamase inhibitor)
- MIC (μg/mL) of exemplary compounds in presence of fixed β-lactams, E. cl. 144200 p99 AmpC [2]: C (C represents the MIC in the presence of ≤4 μg/mL of a β-lactamase inhibitor)
- MIC (μg/mL) of exemplary compounds in presence of fixed β-lactams, K.P. A-1797 KPC-2 VIM-4 [3]: B (B represents the MIC in the presence of between 8 and 32 μg/mL of a β-lactamase inhibitor)
- MIC (μg/mL) of exemplary compounds in presence of fixed β-lactams, P. aerug. 2775 VIM-2 [4]: C (C represents the MIC in the presence of ≤4 μg/mL of a β-lactamase inhibitor)
- IC50 [5]: 1000 to 10000 nM
- IC50 (SHV-5): < 100 nM
- MIC (μg/mL) of exemplary compounds in presence of fixed β-lactams, K. P. 11978 OXA-48 [6]: C (C represents the MIC in the presence of ≤4 μg/mL of a β-lactamase inhibitor)
- MIC (μg/mL) of exemplary compounds in presence of fixed β-lactams, K. P. 156319 KPC-3 [7]: B (B represents the MIC in the presence of between 8 and 32 μg/mL of a β-lactamase inhibitor)
- IC50 (KPC-2): 100 to 1000 nM
